# According to patent US20250270217A1, “IMIDAZ0[1,2-A]PYRIMIDINE-5(1 H)-ONES HAVING A COVALENT WARHEAD AT THE 3-POSITION AS WRN INHIBITORS” (Incyte Corporation, priority 2023, published 2025):
# Where a name gives a salt, the structure may show the parent alone.
# Key:
# [1] = molecular target: T1, WRN (Homo sapiens, UniProt Q14191); assay: WRN Helicase activity assay (fluorescence DNA unwinding); assay type: biochemical; conditions: 1-hr pre-incubation with enzyme; 100 μM ATP, 25 nM forked dsDNA, 1 nM WRN; geometric mean of at least 2 replicates
# T1 construct: A His-tagged construct of WRN (AA S2-S1235) was produced and used for the ATPase assay; His; made in house; host or cells: Sf9 insect cells (baculovirus)
# Experimental: Compounds of the examples were tested for WRN helicase activity. DNA encoding the target protein, 6×HIS-TEV-WRN-517-945, was produced, cloned and transfected as detailed in Example D. To determine the inhibitory properties of the compounds, a 384 wells plate-based Helicase assay was set up to measure the extent of DNA unwinding (Helicase) activity of WRN. The WRN Helicase assay was designed to measure increase in fluorescence signal using a fluorescence based, donor-quencher paired forked dsDNA oligomer substrate (custom synthesis from Sigma-Aldrich) prepared by annealing equal amounts of oligo GPat-1 ([BHQ2][…]) and oligo GPat-2 ([…][TAM]). Continuous measurement of fluorescent signal was used to optimize the buffer conditions, concentration of enzyme (WRN), concentration of substrates (ATP & dsDNA), and the linearity of the Helicase reaction. All solutions were prepared in the following assay buffer: 50 mM Tris-HCl, pH-7.5, 2 mM MgCl2, 50 mM NaCl, 1 mM EGTA, 0.01% P-20, 0.05% BSA, and 2 mM DTT prepared with nuclease free water.
# A serial dilution (1:3 scheme) of the compounds was prepared in neat DMSO and 100 nL of the compounds was dispensed in the Greiner black low volume (Greiner #784076) 384 wells assay plate. An 1-hr pre-incubation of the compounds with enzyme was included. A His-tagged construct of WRN (AA S2-S1235) was produced and used for the ATPase assay. Maximum inhibition control wells were set up with the addition of only assay buffer, and no inhibition control wells were set up with neat DMSO without test compounds. The reaction was initiated by addition of 5 μL substrate mix (200 μM ultrapure ATP, and 50 nM dsDNA prepared in assay buffer) and incubated at 25° C. for 35 min. A typical Helicase reaction consists of 25 nM forked dsDNA, 100 μM ATP, and 1 nM WRN prepared in assay buffer. The WRN Helicase reaction was quenched by the addition of 5 μL ‘STOP’ solution containing 100 mM EDTA (final EDTA concentration 33.33 mM) prepared in assay buffer. The plates were read on BMG PHERAstar FSX using 540/590 module to measure an increase of fluorescence. Data analysis was carried out using the Genedata software following % of control normalization. Fitting parameters include dose response IC50, Hill slope (n), maximum inhibition (S∞), and minimum inhibition (S0). The reported IC50 values for compounds in this invention are the geometric means of at least 2 independent replicates.
# [2] = molecular target: T1, WRN; assay: WRN ATPase activity assay (ADP-Glo); assay type: biochemical; conditions: 1-hr pre-incubation with enzyme; 100 μM ATP, 25 nM forked dsDNA, 1 nM WRN; geometric mean of at least 2 replicates
# Experimental: Compounds of the Examples were tested for WRN ATPase activity. WRN ATPase activity catalyzes ATP hydrolysis to produce ADP and phosphate. DNA encoding the target protein, 6×HIS-TEV-WRN-517-945, was produced, cloned and transfected as detailed in Example D. The amount of ADP produced was measured using ADP-Glo™ Kinase Assay kit from Promega Corporation in a Greiner white regular volume 384 wells assay plate (Greiner #781075). Data was normalized to a standard curve generated using various ADP concentrations and the corresponding luminescent signal intensities at each concentration. The assay conditions were optimized for enzyme concentration (WRN), substrate concentrations (ATP & dsDNA), and the linearity of the ATPase reaction, in the following assay buffer: 50 mM Tris-HCl, pH-7.5, 2 mM MgCl2, 50 mM NaCl, 1 mM EGTA, 0.01% P-20, 0.05% BSA, and 2 mM DTT prepared with nuclease free water.
# A serial dilution (1:3 scheme) of the compounds were prepared in neat DMSO, with 100 nL of the compounds dispensed in the 384 wells assay plate. An 1-hr pre-incubation of the compounds with enzyme was included. A His-tagged construct of WRN (AA S2-S1235) was produced and used for the ATPase assay. Maximum inhibition control wells were set up with the addition of only assay buffer, and no inhibition control wells were set up with neat DMSO without test compounds. The reaction was initiated by addition of 5 μL substrate mix (200 μM ultrapure ATP, and 50 nM dsDNA prepared in assay buffer) and incubated at 25° C. for 35 min. A forked dsDNA oligomer substrate was prepared by annealing equal amounts of oligo GPat-1 ([BHQ2][…]) and oligo GPat-2 ([…][TAM]) and was used as dsDNA substrate for WRN ATPase assay. A typical ATPase reaction consists of 25 nM forked dsDNA, 100 μM ATP, and 1 nM WRN prepared in assay buffer. The WRN ATPase reaction was stopped by the addition of 5 μL of ADP-Glo Reagent from ADP-Glo™ Kinase Assay kit and incubated for 40 min to deplete the unreacted ATP. Afterwards, 5 μL of Kinase Detection Reagent from the ADP-Glo™ Kinase Assay kit was added and incubated for 1 hr for the development of luminescence signal.
# Luminesce signals were measured on BMG PHERAstar FSX using luminescence protocol. Data analysis was carried out using Genedata software following % of control normalization. Fitting parameters include dose response IC50, Hill slope (n), maximum inhibition (S∞), and minimum inhibition (S0). The reported IC50 values for compounds in this invention are the geometric means of at least 2 independent replicates.
# T1 sequence (Q14191 2-1235): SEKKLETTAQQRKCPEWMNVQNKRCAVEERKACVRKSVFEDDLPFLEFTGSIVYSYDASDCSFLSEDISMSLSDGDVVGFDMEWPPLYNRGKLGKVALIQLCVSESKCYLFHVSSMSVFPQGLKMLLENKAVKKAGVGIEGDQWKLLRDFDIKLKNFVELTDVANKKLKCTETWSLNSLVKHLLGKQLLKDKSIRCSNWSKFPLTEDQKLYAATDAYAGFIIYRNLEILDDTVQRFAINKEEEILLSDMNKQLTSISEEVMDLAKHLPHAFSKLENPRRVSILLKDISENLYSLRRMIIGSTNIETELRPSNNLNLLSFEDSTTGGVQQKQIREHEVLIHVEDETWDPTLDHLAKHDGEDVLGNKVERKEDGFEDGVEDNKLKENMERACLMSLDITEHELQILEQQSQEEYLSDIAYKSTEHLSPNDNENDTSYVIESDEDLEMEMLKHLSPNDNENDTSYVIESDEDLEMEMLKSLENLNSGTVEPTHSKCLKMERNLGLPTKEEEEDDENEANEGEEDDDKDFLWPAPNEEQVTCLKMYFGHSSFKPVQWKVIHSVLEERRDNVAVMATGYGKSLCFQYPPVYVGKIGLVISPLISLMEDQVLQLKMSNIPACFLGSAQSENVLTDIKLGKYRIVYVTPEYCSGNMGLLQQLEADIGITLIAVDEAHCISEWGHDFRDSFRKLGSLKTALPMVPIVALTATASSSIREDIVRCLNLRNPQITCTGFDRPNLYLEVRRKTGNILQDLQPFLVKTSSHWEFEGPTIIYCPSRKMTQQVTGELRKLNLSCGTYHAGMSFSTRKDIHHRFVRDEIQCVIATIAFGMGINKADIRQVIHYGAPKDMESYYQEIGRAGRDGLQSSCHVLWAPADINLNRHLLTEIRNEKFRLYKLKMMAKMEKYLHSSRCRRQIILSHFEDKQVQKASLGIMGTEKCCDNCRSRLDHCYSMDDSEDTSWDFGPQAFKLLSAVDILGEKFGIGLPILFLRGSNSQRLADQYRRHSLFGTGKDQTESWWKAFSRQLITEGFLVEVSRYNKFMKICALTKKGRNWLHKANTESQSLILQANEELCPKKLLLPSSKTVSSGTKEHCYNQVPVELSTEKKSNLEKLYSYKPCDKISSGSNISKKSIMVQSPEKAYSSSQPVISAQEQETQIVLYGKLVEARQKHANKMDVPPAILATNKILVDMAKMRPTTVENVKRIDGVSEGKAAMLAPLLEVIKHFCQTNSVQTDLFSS
Compound,IC50 [1],IC50 [2]
"C=CC(=O)Nc1cc(C(=O)NC2CCOCC2)ccc1-c1c(CC)nc2n(CC(=O)Nc3ccc(C(F)(F)F)cc3)c(C)cn2c1=O [Example 13, 3-Acrylamido-4-(7-ethyl-2-methyl-5-oxo-1-(2-oxo-2-((4-(trifluoromethyl)phenyl)amino)ethyl)-1,5-dihydroimidazo[1,2-a]pyrimidin-6-yl)-N-(tetrahydro-2H-pyran-4-yl)benzamide]",< 100 nM,< 100 nM
"C=CC(=O)Nc1ccccc1-c1c(CC)nc2n(CC(=O)Nc3ccc(C(F)(F)F)cc3)c(C)c(C3CC3)n2c1=O [Example 14, N-(2-(3-Cyclopropyl-7-ethyl-2-methyl-5-oxo-1-(2-oxo-2-((4-(trifluoromethyl)phenyl)amino)ethyl)-1,5-dihydroimidazo[1,2-a]pyrimidin-6-yl)phenyl)acrylamide]",< 100 nM,< 100 nM
"C=CC(=O)Nc1ccccc1-c1c(CC)nc2n(CC(=O)Nc3ccc(F)cc3)ccn2c1=O [Example 17, N-(2-(7-ethyl-1-(2-((4-fluorophenyl)amino)-2-oxoethyl)-5-oxo-1,5-dihydroimidazo[1,2-a]pyrimidin-6-yl)phenyl)acrylamide]",100 to 500 nM,100 to 500 nM
"C=CC(=O)Nc1c(Cl)cccc1-c1c(CC)nc2n(CC(=O)Nc3ccc(F)cc3)c(C)c(C)n2c1=O [Example 42, N-(2-chloro-6-(7-ethyl-1-(2-((4-fluorophenyl)amino)-2-oxoethyl)-2,3-dimethyl-5-oxo-1,5-dihydroimidazo[1,2-a]pyrimidin-6-yl)phenyl)acrylamide]",< 100 nM,< 100 nM
"C=CC(=O)Nc1cc(C(=O)N2CCOCC2)ccc1-c1c(CC)nc2n(CC(=O)Nc3ccc(C(F)(F)F)cc3)c(C)c(C)n2c1=O [Example 35, N-(2-(7-Ethyl-2,3-dimethyl-5-oxo-1-(2-oxo-2-((4-(trifluoromethyl)phenyl)amino)ethyl)-1,5-dihydroimidazo[1,2-a]pyrimidin-6-yl)-5-(morpholine-4-carbonyl)phenyl)acrylamide]",< 100 nM,< 100 nM
"C=CC(=O)Nc1ccccc1-c1c(CC)nc2n(CC(=O)Nc3ccc(C(F)(F)F)cc3Cl)c(C)cn2c1=O [Example 2, N-(2-(1-(2-((2-Chloro-4-(trifluoromethyl)phenyl)amino)-2-oxoethyl)-7-ethyl-2-methyl-5-oxo-1,5-dihydroimidazo[1,2-a]pyrimidin-6-yl)phenyl)acrylamide]",< 100 nM,< 100 nM
"C=CC(=O)Nc1cc(C(=O)NCC(F)F)ccc1-c1c(CC)nc2n(CC(=O)Nc3ccc(C(F)(F)F)cc3)c(C)c(C)n2c1=O [Example 30, 3-Acrylamido-N-(2,2-difluoroethyl)-4-(7-ethyl-2,3-dimethyl-5-oxo-1-(2-oxo-2-((4-(trifluoromethyl)phenyl)amino)ethyl)-1,5-dihydroimidazo[1,2-a]pyrimidin-6-yl)benzamide]",< 100 nM,< 100 nM
"C=CC(=O)Nc1cc(C(=O)NC2CCOCC2)ccc1-c1c(CC)nc2n(CC(=O)Nc3ccc(C(F)(F)F)cc3)c(C)c(C)n2c1=O [Example 32, 3-Acrylamido-4-(7-ethyl-2,3-dimethyl-5-oxo-1-(2-oxo-2-((4-(trifluoromethyl)phenyl)amino)ethyl)-1,5-dihydroimidazo[1,2-a]pyrimidin-6-yl)-N-(tetrahydro-2H-pyran-4-yl)benzamide]",< 100 nM,< 100 nM

# Continued, values first:
IC50 [1],IC50 [2],Compound
< 100 nM,< 100 nM,"C=CC(=O)Nc1cc(C(=O)NC2CCC2)ccc1-c1c(CC)nc2n(CC(=O)Nc3ccc(C(F)(F)F)cc3)c(C)c(C)n2c1=O [Example 29, 3-Acrylamido-N-cyclobutyl-4-(7-ethyl-2,3-dimethyl-5-oxo-1-(2-oxo-2-((4-(trifluoromethyl)phenyl)amino)ethyl)-1,5-dihydroimidazo[1,2-a]pyrimidin-6-yl)benzamide]"
< 100 nM,< 100 nM,"C=CC(=O)Nc1ccccc1-c1c(CC)nc2n(CC(=O)Nc3ccc(C(F)(F)F)cc3)c(C)c(-c3ccccc3)n2c1=O [Example 15, N-(2-(7-Ethyl-2-methyl-5-oxo-1-(2-oxo-2-((4-(trifluoromethyl)phenyl)amino)ethyl)-3-phenyl-1,5-dihydroimidazo[1,2-a]pyrimidin-6-yl)phenyl)acrylamide]"
< 100 nM,< 100 nM,"CCc1nc2n(CC(=O)Nc3ccc(C(F)(F)F)cc3)c(C)cn2c(=O)c1-c1ccccc1NC(=O)CCl [Example 7, 2-Chloro-N-(2-(7-ethyl-2-methyl-5-oxo-1-(2-oxo-2-((4-(trifluoromethyl)phenyl)amino)ethyl)-1,5-dihydroimidazo[1,2-a]pyrimidin-6-yl)phenyl)acetamide]"
< 100 nM,< 100 nM,"C=CC(=O)Nc1ccccc1-c1c(C)n(CC(=O)Nc2ccc(C(F)(F)F)cc2)c2nc(CC)c(-c3ccc(C(=O)NC)nc3)c(=O)n12 [Example 41, 5-(3-(2-Acrylamidophenyl)-7-ethyl-2-methyl-5-oxo-1-(2-oxo-2-((4-(trifluoromethyl)phenyl)amino)ethyl)-1,5-dihydroimidazo[1,2-a]pyrimidin-6-yl)-N-methylpicolinamide, trifluoroacetate salt]"
< 100 nM,< 100 nM,"C=CC(=O)Nc1ccccc1-c1c(CC)nc2n(CC(=O)Nc3ccc(C(F)(F)F)cc3)c(C)c(-c3cnn(C)c3)n2c1=O [Example 16, N-(2-(7-Ethyl-2-methyl-3-(1-methyl-1H-pyrazol-4-yl)-5-oxo-1-(2-oxo-2-((4-(trifluoromethyl)phenyl)amino)ethyl)-1,5-dihydroimidazo[1,2-a]pyrimidin-6-yl)phenyl)acrylamide]"
< 100 nM,< 100 nM,"C=CC(=O)Nc1ccccc1-c1c(C)n(CC(=O)Nc2ccc(C(F)(F)F)cc2)c2nc(CC)c(-c3ccc(C(=O)NCC)cc3)c(=O)n12 [Example 40, 4-(3-(2-Acrylamidophenyl)-7-ethyl-2-methyl-5-oxo-1-(2-oxo-2-((4-(trifluoromethyl)phenyl)amino)ethyl)-1,5-dihydroimidazo[1,2-a]pyrimidin-6-yl)-N-ethylbenzamide, trifluoroacetate salt]"
< 100 nM,< 100 nM,"C=CC(=O)Nc1ccccc1-c1cn(CC(=O)Nc2ccc(C(F)(F)F)cc2)c2nc(CC)c(N3CCN(C(=O)c4ncccc4O)CC3)c(=O)n12 [Example 36, N-(2-(7-Ethyl-6-(4-(3-hydroxypicolinoyl)piperazin-1-yl)-5-oxo-1-(2-oxo-2-((4-(trifluoromethyl)phenyl)amino)ethyl)-1,5-dihydroimidazo[1,2-a]pyrimidin-3-yl)phenyl)acrylamide]"
